Test results published in paper PMC10833137, “Characterization of a novel 4-guanidinobutyrase from Candida parapsilosis” (FEMS Yeast Research, 2024).
Read-outs that look alike come from different tables or passages of the source.

Tests used:
AnGBase (A. niger GBase) = biological target: T1, AnGBase (A. niger GBase) (Aspergillus niger, UniProt W8R465); test: product inhibition, Cheng-Prusoff; assay type: biochemical
T1 sequence (W8R465 21-422 limits assumed): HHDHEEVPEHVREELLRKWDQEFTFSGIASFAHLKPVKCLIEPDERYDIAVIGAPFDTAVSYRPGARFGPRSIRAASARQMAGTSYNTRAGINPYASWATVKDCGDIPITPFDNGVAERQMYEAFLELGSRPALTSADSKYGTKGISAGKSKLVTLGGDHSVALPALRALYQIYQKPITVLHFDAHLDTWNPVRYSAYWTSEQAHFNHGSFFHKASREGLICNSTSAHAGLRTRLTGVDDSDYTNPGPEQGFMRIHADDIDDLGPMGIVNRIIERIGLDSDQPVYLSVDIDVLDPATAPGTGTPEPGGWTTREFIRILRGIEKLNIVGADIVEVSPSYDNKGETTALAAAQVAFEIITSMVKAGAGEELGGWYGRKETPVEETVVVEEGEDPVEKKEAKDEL
Excerpt: product inhibition, Cheng-Prusoff on AnGBase (A. niger GBase)

[1] = biological target: T2, CpGBase (C. parapsilosis 4-guanidinobutyrase; CparGBase) (Lodderomyces parapsilosis, UniProt G8B5B7); test: modified Archibald urea assay, product inhibition, Cheng-Prusoff; assay type: biochemical
T2 construct: gene CPAR2_602270
T2 sequence (G8B5B7 16-367 limits assumed): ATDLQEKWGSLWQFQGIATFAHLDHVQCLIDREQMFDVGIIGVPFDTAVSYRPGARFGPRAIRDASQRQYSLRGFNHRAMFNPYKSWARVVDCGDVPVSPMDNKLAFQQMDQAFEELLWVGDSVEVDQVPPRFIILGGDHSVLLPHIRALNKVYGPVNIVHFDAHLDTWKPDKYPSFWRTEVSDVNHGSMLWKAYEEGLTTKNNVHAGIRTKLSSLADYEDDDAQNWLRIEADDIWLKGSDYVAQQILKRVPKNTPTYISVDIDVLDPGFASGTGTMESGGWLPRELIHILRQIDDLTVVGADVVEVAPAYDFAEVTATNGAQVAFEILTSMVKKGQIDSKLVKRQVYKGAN
Excerpt: modified Archibald urea assay, product inhibition, Cheng-Prusoff on CpGBase (C. parapsilosis 4-guanidinobutyrase; CparGBase)

purified protein [2] = substrate: N=C(N)NCCCC(=O)O; test: purified protein; assay type: biochemical, Lodderomyces parapsilosis; conditions: 20 mM phosphate buffer, 37 °C, 20 min, enriched enzyme
purified protein [3] = substrate: N=C(N)NCCC(=O)O; test: purified protein; assay type: biochemical, Lodderomyces parapsilosis; conditions: 20 mM phosphate buffer, 37 °C, 20 min, enriched enzyme

NCCCC(=O)O [GABA]
Ki (AnGBase (A. niger GBase); read-out: KI / GABA): 4.1 ± 1.1 mM | Ki ([1]; read-out: KI / GABA): 3.1 ± 0.5 mM

NCCC(=O)O [β-alanine]
Ki (AnGBase (A. niger GBase); read-out: KI / β-alanine): 48.7 ± 0.8 mM | Ki ([1]; read-out: KI / β-alanine): 7.8 ± 1.2 mM

B1: CpGBase (C. parapsilosis 4-guanidinobutyrase; CparGBase) (Lodderomyces parapsilosis CDC317) (protein)
chain: ATDLQEKWGSLWQFQGIATFAHLDHVQCLIDREQMFDVGIIGVPFDTAVSYRPGARFGPRAIRDASQRQYSLRGFNHRAMFNPYKSWARVVDCGDVPVSPMDNKLAFQQMDQAFEELLWVGDSVEVDQVPPRFIILGGDHSVLLPHIRALNKVYGPVNIVHFDAHLDTWKPDKYPSFWRTEVSDVNHGSMLWKAYEEGLTTKNNVHAGIRTKLSSLADYEDDDAQNWLRIEADDIWLKGSDYVAQQILKRVPKNTPTYISVDIDVLDPGFASGTGTMESGGWLPRELIHILRQIDDLTVVGADVVEVAPAYDFAEVTATNGAQVAFEILTSMVKKGQIDSKLVKRQVYKGAN
Km (purified protein [2]): 4.6 ± 0.5 mM | Km (purified protein [3]): 9.6 ± 0.4 mM
